The text below walks through data of patent US4279887A, “Amides useful as brain imaging agents” (Medi-Physics, Inc., priority 1978, dated 1981).

Data set [1] can be described thus: Bioassay of I-123-labeled compounds: organ distribution of activity 5 minutes after tail vein injection. Type of data set: in vivo, Female Sprague-Dawley rats. To be noted: rat; for Percent Dose in Stomach / Ratio Brain/Blood / Ratio Heart/Blood: 5 min. Here is the method: Bioassays were performed utilizing compounds from the foregoing examples labeled with I-123 in accordance with the method described in Example 18. Female Sprague-Dawley rats weighing approximately 150 g were anesthetized with sodium pentobarbital and were injected in a tail vein with from 0.05 to 1.0 mCi (in a volume of 0.2 to 0.5 ml) of the I-123-labeled compound. Two specimens were utilized for each test.
The animals were sacrificed at 5 minutes post injection, the tails discarded and the amount of activity in various organs determined. Each organ was counted at a standardized geometry with a thallium iodide-activated sodium iodide crystal scintillation counter adjusted for the 159 keV emission of I-123. The organs were also weighed to one thousandth of a gram and the activity calculated as a percent of administered dose per gram organ weight.
The ratio of brain-to-blood activity was calculated as a percent of administered dose per gram. The important determinations are the amount of activity in the brain and the brain/blood ratio. The amount of activity in the stomach is related to loss of the I-123-label. For comparative purposes, I-123 antipyrine was utilized as a standard.

The conditions of data set [2]: I-123 labeled, cited from earlier work.
[3] abbreviates: in vivo, iv, Percent Dose/g. at 5 min., Blood.
The mark [4] stands for this setting: in vivo, iv, Percent Dose/g. at 5 min., Brain.
Setting [5] is: in vivo, iv, Percent Dose/g. at 5 min., Heart.
Where [6] appears, read: i.v., ratio of percent dose per gram.
The mark [7] stands for this setting: i.v., stomach activity is related to loss of the I-123 label.

Where two headings read alike, the source gives them in different places.

For the compound `CNC(=O)c1ccccc1[123I]` [Example 1, N-methyl-o-iodobenzamide], in data set [1] (in vivo, iv), the “Percent Dose in Stomach” value turned out to be 0.94 Percent Dose, the “Ratio Brain/Blood” value worked out at 1.21 and the “Ratio Heart/Blood” value came to 1.28. The tissue uptake at 5 min in data set [1] (setting [3]) is 0.86 %ID/g. The compound also came in with a tissue uptake at 5 min in data set [1] (setting [4]) of 1.04 %ID/g. Further, the tissue uptake at 5 min in data set [1] (setting [5]) turned out to be 1.1 %ID/g.
`NC(=O)c1ccccc1[123I]` [Example 2, o-iodobenzamide]: in data set [1] (in vivo, iv), the “Percent Dose in Stomach” value came out at 0.93 Percent Dose, the “Ratio Brain/Blood” value is recorded as 1.28 and the “Ratio Heart/Blood” value was 1.32. Besides, in data set [1] (setting [3]), the tissue uptake at 5 min came out at 0.69 %ID/g. The same compound registered a tissue uptake at 5 min in data set [1] (setting [4]) of 0.88 %ID/g. This compound had a tissue uptake at 5 min in data set [1] (setting [5]) of 0.91 %ID/g.
Take `CCCCCCNC(=O)c1ccccc1[123I]` [Example 3, N-hexyl-o-iodobenzamide]: in data set [1] (in vivo, iv), the “Percent Dose in Stomach” value is listed as 0.86 Percent Dose, the “Ratio Brain/Blood” value is 1.05 and the “Ratio Heart/Blood” value is on record as 1.21. Also, the tissue uptake at 5 min in data set [1] (setting [3]) stood at 0.56 %ID/g. This compound yielded a tissue uptake at 5 min in data set [1] (setting [4]) of 0.59 %ID/g. In addition, the tissue uptake at 5 min in data set [1] (setting [5]) turned out to be 1.04 %ID/g.
`CCCCCCCCCCCCCCCCCCNC(=O)c1ccccc1[123I]` [Example 5, N-octadecyl-o-iodobenzamide]: in data set [1] (in vivo, iv), the “Percent Dose in Stomach” value is 0.20 Percent Dose, the “Ratio Brain/Blood” value is 0.10 and the “Ratio Heart/Blood” value was 0.92. For the same compound, the tissue uptake at 5 min in data set [1] (setting [3]) came out at 0.91 %ID/g. For the same compound, the tissue uptake at 5 min in data set [1] (setting [4]) is 0.09 %ID/g. The compound also gave a tissue uptake at 5 min in data set [1] (setting [5]) of 0.84 %ID/g.
On to `O=C(Nc1ccccc1)c1ccccc1[123I]` [Example 6, o-iodobenzanilide], for which, in data set [1] (setting [6]), the “Ratio Brain/Blood” value turned out to be 0.90. The “Ratio Heart/Blood” value in data set [1] (setting [6]) was 2.34. Moreover, in data set [1] (setting [7]), the “Percent Dose in Stomach” value is on record as 1.66 Percent Dose. Further, the tissue uptake at 5 min in data set [1] (in vivo, iv, i.v. tail vein, 5 min post injection, blood, I-123 label, read-out: Percent Dose/g. at 5 min., Blood) amounted to 0.93 %ID/g; in data set [1] (in vivo, iv, i.v. tail vein, 5 min post injection, brain, I-123 label, read-out: Percent Dose/g. at 5 min., Brain), 0.84 %ID/g; in data set [1] (in vivo, iv, i.v. tail vein, 5 min post injection, heart, I-123 label, read-out: Percent Dose/g. at 5 min., Heart), 2.18 %ID/g.
Turning to `Cc1cccc(C)c1NC(=O)c1ccccc1[123I]` [Example 7, o-iodobenz-2,6-xylidide], in data set [1] (in vivo, iv), the “Percent Dose in Stomach” value was determined as 0.82 Percent Dose, the “Ratio Brain/Blood” value was 0.87 and the “Ratio Heart/Blood” value turned out to be 1.43. Moreover, the tissue uptake at 5 min in data set [1] (setting [3]) is 0.69 %ID/g. In data set [1] (setting [4]), this compound registered a tissue uptake at 5 min of 0.6 %ID/g. In addition, in data set [1] (setting [5]), the tissue uptake at 5 min was 0.99 %ID/g.
As to `O=C(NCc1ccccc1)c1ccccc1[123I]` [Example 8, N-benzyl-o-iodobenzamide], in data set [1] (in vivo, iv), the “Percent Dose in Stomach” value was 0.88 Percent Dose, the “Ratio Brain/Blood” value came to 1.00 and the “Ratio Heart/Blood” value was determined as 2.26. For the same compound, the tissue uptake at 5 min in data set [1] (setting [3]) is 0.68 %ID/g. The tissue uptake at 5 min in data set [1] (setting [4]) worked out at 0.68 %ID/g. Further, in data set [1] (setting [5]), the tissue uptake at 5 min was found to be 1.54 %ID/g.
Regarding `O=C(NCCc1ccccc1)c1ccccc1[123I]` [Example 9, N-phenethyl-o-iodobenzamide], in data set [1] (in vivo, iv), the “Percent Dose in Stomach” value turned out to be 0.82 Percent Dose, the “Ratio Brain/Blood” value was 1.28 and the “Ratio Heart/Blood” value stood at 1.70. In data set [1] (setting [3]), this compound showed a tissue uptake at 5 min of 0.43 %ID/g. The same compound returned a tissue uptake at 5 min in data set [1] (setting [4]) of 0.54 %ID/g. In addition, in data set [1] (setting [5]), the tissue uptake at 5 min came to 0.73 %ID/g.
Take `CN(C)C(=O)c1ccccc1[123I]` [Example 10, N, N-dimethyl-o-iodobenzamide]: in data set [1] (in vivo, iv), the “Percent Dose in Stomach” value worked out at 0.93 Percent Dose, the “Ratio Brain/Blood” value is listed as 0.22 and the “Ratio Heart/Blood” value worked out at 0.72. The compound further showed a tissue uptake at 5 min in data set [1] (setting [3]) of 2.15 %ID/g. This compound registered a tissue uptake at 5 min in data set [1] (setting [4]) of 0.48 %ID/g. In data set [1] (setting [5]), this compound had a tissue uptake at 5 min of 1.54 %ID/g.
For `NC(=O)CNC(=O)c1ccccc1[123I]` [Example 12, o-iodohippuramide], in data set [1] (in vivo, iv), the “Percent Dose in Stomach” value is given as 0.83 Percent Dose. For the same compound, in data set [1] (in vivo, iv), the “Ratio Brain/Blood” value turned out to be 1.10. The “Ratio Heart/Blood” value in data set [1] (in vivo, iv) came out at 1.31. Moreover, the tissue uptake at 5 min in data set [1] (setting [3]) is 0.84 %ID/g; in data set [1] (setting [4]), 0.92 %ID/g; in data set [1] (setting [5]) it was 0.96 %ID/g.
For the compound `O=C(NNc1ccccc1)c1ccccc1[123I]` [Example 13, o-iodobenzphenylhydrazide], in data set [1] (in vivo, iv), the “Percent Dose in Stomach” value was 1.10 Percent Dose, the “Ratio Brain/Blood” value is 0.20 and the “Ratio Heart/Blood” value is listed as 0.55. This compound also registered a tissue uptake at 5 min in data set [1] (setting [3]) of 1.99 %ID/g. The tissue uptake at 5 min in data set [1] (setting [4]) was 0.39 %ID/g. Besides, the tissue uptake at 5 min in data set [1] (setting [5]) was 1.09 %ID/g.
Consider `O=C(NO)c1ccccc1[123I]` [Example 14, o-iodobenzohydramic acid], for which, in data set [1] (in vivo, iv), the “Percent Dose in Stomach” value was 0.96 Percent Dose, the “Ratio Brain/Blood” value stood at 0.57 and the “Ratio Heart/Blood” value is given as 0.99. The same compound gave a tissue uptake at 5 min in data set [1] (setting [3]) of 0.95 %ID/g. Besides, in data set [1] (setting [4]), the tissue uptake at 5 min is 0.54 %ID/g. This compound had a tissue uptake at 5 min in data set [1] (setting [5]) of 0.94 %ID/g.
For the compound `Cc1c([123I])c(=O)n(-c2ccccc2)n1C` [I^123 -iodoantipyrine, 4-iodoantipyrine], in data set [1] (setting [7]), the “Percent Dose in Stomach” value worked out at 2.32 Percent Dose. For the same compound, in data set [2] (literature), the “concentration in the brain” value is recorded as “suboptimal concentration in the brain” and the in vivo deiodination result is reported as “rapid in vivo deiodination”. Moreover, in data set [2] (prior art agent), the “loss of the iodine label in the brain” value is recorded as “significant loss of the iodine label in the brain”.
